This assay concerns CHO-XBP1 cytotoxicity, ATPlite luminescence, 6 h. Nature of the assay: CHO-XBP1 cell viability loss – 6 h exposure, ATPlite luminescence, cytotoxicity control for UPR adaptive arm activator project, SAR follow-up (AID 588569).

SMILES strings stand for the structures. Activity calls are given as the source filed them.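 The calls were made as follows: active = mean IC50 of 20 µM or lower in the 6 hour cytotoxicity test; inactive = the rest.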

As a reminder, the IC50 is the midpoint of a concentration-inhibition curve. Take `O=C(Nc1ccc(F)cc1)c1cc(-c2ccncc2)nc2ccccc12`: the IC50 is > 80 µM (inactive). In the case of `O=C(Nc1ccc(Cl)cc1)c1cc(-c2ccncc2)nc2ccccc12`, the IC50 was 75.4 µM (inactive).

For the compound `O=C(Nc1ccc(Br)c(C(F)(F)F)c1)c1cc(-c2ccncc2)nc2ccccc12`, the IC50 is > 80 µM (inactive). Regarding `O=C(Nc1ccc(C(F)(F)F)cc1)c1cc(-c2ccncc2)nc2ccccc12`, the IC50 is 70.4 µM (inactive).

As to `Cc1ccc(NC(=O)c2cc(-c3ccncc3)nc3ccccc23)cc1`, the IC50 was > 80 µM (inactive). As for `Cc1nc(Nc2nc(-c3ccccc3)cc(=O)[nH]2)nc2ccccc12`, the IC50 was 36.4 µM (inactive). Then `Cc1cc(Br)cc(NC(=O)c2cc(-c3ccncc3)nc3ccccc23)c1`, with > 80 µM (inactive).

The record behind these values is PubChem BioAssay AID588569 (Sanford-Burnham Center for Chemical Genomics, 2011).
